From ChEMBL document CHEMBL3272113, “Inhibitors of the luteinizing hormone-releasing hormone based upon modifications in the 2, 3, and 6 positions” (J Med Chem, 1976)
Square brackets hold non-standard residues; d marks the D form. Peptide text beside a SMILES is read from it. pGlu = O=C1CC[C@@H](C(=O)O)N1

Assays:
[1] = target: Gonadotropin-releasing hormone receptor (Rattus norvegicus) (UniProt P30969); experiment: Antagonist activity at LH-RH receptor in rat pituitary gland assessed as inhibition of LH-RH-induced luteinizing hormone release
[2] = target: Gonadotropin-releasing hormone receptor (Rattus norvegicus) (UniProt P30969); experiment: Agonist activity at LH-RH receptor in rat pituitary gland assessed as change in FSH secretion at 100000 ng/ml
[3] = Retardation factor of the compound using CHCl3-MeOH-concentrated NH4OH as solvent system by thin layer chromatography; type: physicochemical
[4] = target: Gonadotropin-releasing hormone receptor (Rattus norvegicus) (UniProt P30969); experiment: Antagonist activity at LH-RH receptor in rat pituitary gland assessed as inhibition of LH-RH-induced luteinizing hormone release by measuring change in LH level in medium at 1000 ng/ml
[5] = Retardation factor of the compound using EtOH-H2O at ratio of 7:3 as solvent system by thin layer chromatography; type: physicochemical
[6] = target: Gonadotropin-releasing hormone receptor (Rattus norvegicus) (UniProt P30969); experiment: Agonist activity at LH-RH receptor in rat pituitary gland assessed as change in luteinizing hormone secretion at 100000 ng/ml
[7] = target: Gonadotropin-releasing hormone receptor (Rattus norvegicus) (UniProt P30969); experiment: Antagonist activity at LH-RH receptor in rat pituitary gland assessed as inhibition of LH-RH-induced FSH release
[8] = Retardation factor of the compound using 1-BuOH-AcOH-EtOAc-H2O at ratio of 1:1:1:1 as solvent system by thin layer chromatography; type: physicochemical
[9] = Retardation factor of the compound using EtOAc-pyridine-AcOH-H2O at ratio of 5:5:1:3 as solvent system by thin layer chromatography; type: physicochemical
[10] = Retardation factor of the compound using 2-propanol-1N AcOH at ratio of 2:1 as solvent system by thin layer chromatography; type: physicochemical
[11] = target: Gonadotropin-releasing hormone receptor (Rattus norvegicus) (UniProt P30969); experiment: Antagonist activity at LH-RH receptor in rat pituitary gland assessed as inhibition of LH-RH-induced FSH release by measuring change in FSH level in medium at 10000 ng/ml
[12] = target: Gonadotropin-releasing hormone receptor (Rattus norvegicus) (UniProt P30969); experiment: Antagonist activity at LH-RH receptor in rat pituitary gland assessed as inhibition of LH-RH-induced FSH release by measuring change in FSH level in medium at 1000 ng/ml
[13] = target: Gonadotropin-releasing hormone receptor (Rattus norvegicus) (UniProt P30969); experiment: Antagonist activity at LH-RH receptor in rat pituitary gland assessed as inhibition of LH-RH-induced luteinizing hormone release by measuring change in LH level in medium at 10000 ng/ml
[14] = target: Gonadotropin-releasing hormone receptor (Rattus norvegicus) (UniProt P30969); experiment: Antagonist activity at LH-RH receptor in rat pituitary gland assessed as inhibition of LH-RH-induced luteinizing hormone release by measuring change in LH level in medium at 100000 ng/ml
[15] = target: Gonadotropin-releasing hormone receptor (Rattus norvegicus) (UniProt P30969); experiment: Antagonist activity at LH-RH receptor in rat pituitary gland assessed as inhibition of LH-RH-induced FSH release by measuring change in FSH level in medium at 100000 ng/ml
[16] = tested on: Gonadotropin-releasing hormone receptor; experiment: Agonist activity at LH-RH receptor (unknown origin) relative to LH-RH
[17] = Retardation factor of the compound using 1-BuOH-pyridine-AcOH-H2O at ratio of 30:20:6:24 as solvent system by thin layer chromatography; type: physicochemical
Rattus norvegicus [18] = experiment: Induction of LH release in immature rat administered as infusion relative to LH-RH; type: functional
Rattus norvegicus [19] = experiment: Induction of FSH release in immature rat administered as infusion relative to LH-RH; type: functional

Sequence of Gonadotropin-releasing hormone receptor (Rattus norvegicus) (P30969 whole entry, looked up): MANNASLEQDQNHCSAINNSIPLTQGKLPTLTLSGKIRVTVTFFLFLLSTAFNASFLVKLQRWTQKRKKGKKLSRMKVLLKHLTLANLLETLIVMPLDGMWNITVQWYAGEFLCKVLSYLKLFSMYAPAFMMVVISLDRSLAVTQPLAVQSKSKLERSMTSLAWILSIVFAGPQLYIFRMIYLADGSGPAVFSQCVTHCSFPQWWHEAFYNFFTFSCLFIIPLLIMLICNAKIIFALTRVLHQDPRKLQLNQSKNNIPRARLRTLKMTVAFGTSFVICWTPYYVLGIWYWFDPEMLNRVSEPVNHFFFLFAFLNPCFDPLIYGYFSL

SMILES	MED [1]	Activity [2]	Rf [3]	Activity [4]	Rf [5]	Activity [6]	MED [7]	Rf [8]	Rf [9]	Rf [10]	Activity [11]	Activity [12]	Activity [13]	Activity [14]	Activity [15]	Activity [16]	Rf [17]	Activity (Rattus norvegicus [18])	Activity (Rattus norvegicus [19])
CC(C)C[C@H](NC(=O)[C@@H](C)NC(=O)[C@H](Cc1ccc(O)cc1)NC(=O)[C@H](CO)NC(=O)[C@@H](NC(=O)[C@@H](NC(=O)[C@@H]1CCC(=O)N1)C(C)C)C(C)C)C(=O)N[C@@H](CCCNC(=N)N)C(=O)N1CCC[C@H]1C(=O)NCC(N)=O	100 µg/mL	850 ng/mL	0.53		0.62	17 ng/mL	100 µg/mL	0.64	0.7	0.54	4810 ng/mL		313 ng/mL	35 ng/mL	770 ng/mL				
CC(C)C[C@H](NC(=O)[C@@H](C)NC(=O)[C@H](Cc1ccc(O)cc1)NC(=O)[C@H](CO)NC(=O)[C@H](Cc1c[nH]c2ccccc12)NC(=O)[C@H](Cc1cnc[nH]1)NC(=O)[C@@H]1CCC(=O)N1)C(=O)N[C@@H](CCCNC(=N)N)C(=O)N1CCC[C@H]1C(=O)NCC(N)=O																300%			
CCNC(=O)[C@@H]1CCCN1C(=O)[C@H](CCCNC(=N)N)NC(=O)[C@H](CC(C)C)NC(=O)[C@@H](C)NC(=O)[C@H](Cc1ccc(O)cc1)NC(=O)[C@H](CO)NC(=O)[C@H](Cc1c[nH]c2ccccc12)NC(=O)[C@H](Cc1cnc[nH]1)NC(=O)[C@@H]1CCC(=O)N1																		1600%	1200%

The next lines start with results.

MED [1]	Activity [2]	Rf [3]	Activity [4]	Rf [5]	Activity [6]	MED [7]	Rf [8]	Rf [9]	Rf [10]	Activity [11]	Activity [12]	Activity [13]	Activity [14]	Activity [15]	Activity [16]	Rf [17]	SMILES	Activity (Rattus norvegicus [18])	Activity (Rattus norvegicus [19])
10 µg/mL	158 ng/mL	0.58	246 ng/mL	0.62	-9 ng/mL	10 µg/mL	0.66	0.71	0.58	1260 ng/mL	6170 ng/mL	28 ng/mL					CC(C)C[C@H](NC(=O)[C@@H](NC(=O)[C@@H]1CCC(=O)N1)C(C)C)C(=O)N[C@@H](CO)C(=O)N[C@@H](Cc1ccc(O)cc1)C(=O)N[C@H](C)C(=O)N[C@@H](CC(C)C)C(=O)N[C@@H](CCCNC(=N)N)C(=O)N1CCC[C@H]1C(=O)NCC(N)=O		
30 µg/mL						30 µg/mL											CC(C)C[C@H](NC(=O)CNC(=O)[C@H](Cc1ccc(O)cc1)NC(=O)[C@H](CO)NC(=O)[C@H](Cc1c[nH]c2ccccc12)NC(=O)[C@@H]1CCC(=O)N1)C(=O)N[C@@H](CCCNC(=N)N)C(=O)N1CCC[C@H]1C(=O)NCC(N)=O ([pGlu]WSYGLRPG-NH2)		
100 µg/mL	-185 ng/mL	0.58		0.62	-37 ng/mL	100 µg/mL	0.66	0.71	0.57	3770 ng/mL		150 ng/mL	13 ng/mL	-399 ng/mL			CC(C)C[C@H](NC(=O)[C@@H]1CCC(=O)N1)C(=O)N[C@H](C(=O)N[C@@H](CO)C(=O)N[C@@H](Cc1ccc(O)cc1)C(=O)N[C@H](C)C(=O)N[C@@H](CC(C)C)C(=O)N[C@@H](CCCNC(=N)N)C(=O)N1CCC[C@H]1C(=O)NCC(N)=O)C(C)C		
10 µg/mL	1690 ng/mL		460 ng/mL	0.63	26 ng/mL	10 µg/mL	0.69	0.8	0.67	2700 ng/mL	9280 ng/mL	3 ng/mL				0.59	CC(C)C[C@H](NC(=O)[C@@H]1CCC(=O)N1)C(=O)N[C@@H](CC(C)C)C(=O)N[C@@H](CO)C(=O)N[C@@H](Cc1ccc(O)cc1)C(=O)N[C@H](C)C(=O)N[C@@H](CC(C)C)C(=O)N[C@@H](CCCNC(=N)N)C(=O)N1CCC[C@H]1C(=O)NCC(N)=O		
100 µg/mL						100 µg/mL											CC(C)C[C@H](NC(=O)CNC(=O)[C@H](Cc1ccc(O)cc1)NC(=O)[C@H](CO)NC(=O)[C@H](CC(C)C)NC(=O)[C@H](CC(C)C)NC(=O)[C@@H]1CCC(=O)N1)C(=O)N[C@@H](CCCNC(=N)N)C(=O)N1CCC[C@H]1C(=O)NCC(N)=O ([pGlu]LLSYGLRPG-NH2)		
